Read-outs that look alike come from different tables or passages of the source.
Experiments:
[1] = biological target: BB7 RNA-dependent RNA polymerase hepatitis C virus protein (Con1 HCV sequence) (Hepatitis C virus genotype 1b, UniProt Q9WMX2); experiment: Hepatitis C polymerase (BB7) inhibition; type: biochemical
Excerpt: For purposes of this invention, the term “BB7” denotes an RNA-dependent RNA polymerase hepatitis C virus protein sequence which is derived from HCV replicon. A discussion of BB7 and related technology can be found in Blight, K. et al. (2000) Science 290:1972-1974. BB7 can be licensed from Apath, LLC (893 North Warson Road, Saint Louis Mo. 63141, USA). BB7 is also referred to as Con1 HCV sequence and discussions of Con1 can be found in the following references: Lohmann, V. et al. (1999) Science 285:110-113; Pietschmann, T. et al. (2001) J. Virol. […]:1252-1264; Lohmann, V. et al. (2001) J. Virol. 75:1437-1449.
(§1) The ability of the compounds of the present invention to inhibit Hepatitis C Polymerase was established by the following experimental procedure:
(§2) • 0.5M Na Phosphate buffer. Per liter, weigh 134 gr Na2HPO4.7H2O, add water to 900 ml. Adjust pH to 7.0 with phosphoric acid. Top off with water to 1 L. • Dilute nucleotides 1:1000 to 10 μM (GTP and CTP) or 1:100 to 100 μM (ATP and UTP) into RNase free water. Procedure: • (1) Compounds 10 μl at […] in 15% dimethylsulfoxide (DMSO) When starting from 100 μg/ml compound stock in 1% DMSO: Dispense 5 μl 30% DMSO per well Dispense 5 μl compound (100 μg/ml) per well. When starting from 50 μg/ml compound stock in 15% DMSO: Add 10 μl compound per well.
(§3) Add 20 μl enzyme mix into each well of the assay plate. Incubate compound and enzyme at room temperature for 15 minutes • (3) Template mix—prepare ahead
(§4) Spin down a tube of RNA (5 μg/tube stored in 75% ethanol and 0.3 M sodium acetate) in a microcentrifuge for 20 minutes at 4° C. One tube is enough for 1-1.5 plates. Remove as much ethanol from the tube as possible by inverting the tube. Be gentle, pellet RNA may not adhere to the tube. Vacuum dry the RNA. Resuspend the RNA by adding 1 ml of DEPC water, close the cap of the tube tightly. To dissolve RNA, incubate RNA solution on ice for ˜60 minutes and gently vortex. Spin briefly to ensure all RNA solution is down to the bottom of the tube before opening cap. Gently transfer RNA solution into a 5 ml or larger tube. Add another 3 ml of DEPC water (total 4 ml of volume).
(§5) Add the following volumes of reagents
(§6) Add 20 μl template mix per reaction (i.e. 20 ng of pOF per reaction or ˜3 nM) • (4) Incubate reaction at room temperature (22-25° C.) for 2 hours. • (5) Stop reaction by adding 50 μl of 170 mM EDTA.
(§7) Final concentration of EDTA is 85 mM. • (6) Prewet filters of Millipore multiscreen assay plate by adding 200 μl of 0.5 M sodium phosphate buffer, pH 7.0 into each well. Let stand at room temperature for 2-3 minutes. • (7) Place the multiscreen filter plate onto a Millipore Manifold and turn on vacuum to allow buffer to flow through. Turn off vacuum. Transfer 80 μl of the reaction product into each well of the filter plate. Let stand for 2-3 minutes. Turn on vacuum to filter reaction product. • (8) Turn off vacuum. Add 200 μl of 0.5 M sodium phosphate buffer, pH 7.0 into each well to wash filter. Turn on vacuum.
(§8) Repeat step (8) three more times. • (9) Remove polypropylene bottom. Spot dry filter at the bottom with paper towel. Air dry filter plate on a bench for 1 hour. Add 40 μl Super Mix scintillant. Seal top of the plate with a tape. Place plate into a Packard carrier or micro-beta carrier. • (10) Count plate using a Packard Topcount or micro-beta counter. Count (for example using Program 10) for ^33P in Top count or ^33P program in micro-beta.
(§9) See, Ferrari et al. 1999. J. Virology 73:1649-1654: “Characterization of soluble Hepatitis C virus RNA-dependent RNA polymerase expressed in E. coli and Takamizawa et al. 1991” and J. Virology 65:1105-1113: “Structure and characterization of the Hepatitis C virus genome isolated from human carriers,” both references are hereby incorporated by reference.

[2] = biological target: T1, NS5B from the BK strain (genotype 1b) (Hepatitis C virus genotype 1b, UniProt P26663); experiment: Hepatitis C polymerase (NS5B, BK strain) inhibition, radioactive filter assay; type: biochemical; settings: NS5B BK strain (genotype 1b)
T1 construct: NS5B from the BK strain (genotype 1b) is expressed in E coli as a protein in which the 21 C-terminal amino acids are replaced; made in house; host or cells: E. coli
T1 sequence (P26663 2420-2989): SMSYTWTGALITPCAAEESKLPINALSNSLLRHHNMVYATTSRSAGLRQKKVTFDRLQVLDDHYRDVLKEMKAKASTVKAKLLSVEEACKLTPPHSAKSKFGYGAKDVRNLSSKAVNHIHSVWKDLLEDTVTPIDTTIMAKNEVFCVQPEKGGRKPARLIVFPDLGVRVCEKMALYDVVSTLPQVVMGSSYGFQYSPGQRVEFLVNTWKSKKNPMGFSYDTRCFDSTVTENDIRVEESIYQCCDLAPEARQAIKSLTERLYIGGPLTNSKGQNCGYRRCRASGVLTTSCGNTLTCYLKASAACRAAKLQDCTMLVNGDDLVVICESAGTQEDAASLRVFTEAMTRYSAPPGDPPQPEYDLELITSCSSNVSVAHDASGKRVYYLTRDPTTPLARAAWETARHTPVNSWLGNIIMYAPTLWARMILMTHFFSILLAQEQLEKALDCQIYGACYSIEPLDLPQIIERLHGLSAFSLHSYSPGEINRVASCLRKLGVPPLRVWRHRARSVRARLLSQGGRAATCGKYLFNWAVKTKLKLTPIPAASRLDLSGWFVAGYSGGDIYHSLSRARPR
Excerpt: as §1
NS5B from the BK strain (genotype 1b) is expressed in E coli as a protein in which the 21 C-terminal amino acids are replaced with a short linker and a hexahistidine tag ([…]). The purified protein is mixed with radioactive nucleotides and allowed to replicate a heteropolymeric RNA substrate, primed by an endogenous short hairpin, resulting in an approximately 760 nt product. The radioactive product is captured on a filter and quantitated after removal of the unincorporated nucleotides.
as §2, §3, §4, §5, §6, §7, §8, §9

Sequence of BB7 RNA-dependent RNA polymerase hepatitis C virus protein (Con1 HCV sequence) (Q9WMX2 2420-3010): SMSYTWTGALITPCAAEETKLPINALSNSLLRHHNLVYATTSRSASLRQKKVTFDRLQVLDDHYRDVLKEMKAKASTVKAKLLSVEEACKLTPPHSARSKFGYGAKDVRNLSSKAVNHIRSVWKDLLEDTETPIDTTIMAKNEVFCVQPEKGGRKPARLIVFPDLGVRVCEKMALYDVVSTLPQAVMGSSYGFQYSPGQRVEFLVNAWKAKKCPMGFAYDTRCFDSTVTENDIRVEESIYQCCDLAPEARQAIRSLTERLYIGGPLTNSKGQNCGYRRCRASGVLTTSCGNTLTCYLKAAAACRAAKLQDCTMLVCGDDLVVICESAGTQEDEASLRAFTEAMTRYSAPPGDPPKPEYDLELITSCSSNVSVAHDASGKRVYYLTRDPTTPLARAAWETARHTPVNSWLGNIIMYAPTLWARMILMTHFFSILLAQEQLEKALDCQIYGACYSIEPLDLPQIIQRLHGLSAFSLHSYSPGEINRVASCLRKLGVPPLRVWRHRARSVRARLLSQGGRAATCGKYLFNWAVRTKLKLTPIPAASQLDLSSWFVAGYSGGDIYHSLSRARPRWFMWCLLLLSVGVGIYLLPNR

SMILES	IC50 [1]	IC50 [2]	IC50 ([1]; read-out: BB7 IC50, BB7 (Con1) NS5B)	IC50 ([1]; BB7 (Con1) NS5B, read-out: BB7 IC50)
CCCC1(CC(=O)O)OCCc2c1[nH]c1c(C)c(COc3ccccc3)cc(C#N)c21 (centres unmarked) [Example 20, (5-Cyano-8-methyl-7-phenoxymethyl-1-propyl-1,3,4,9-tetrahydro-pyrano[3,4-b]indol-1-yl)-acetic acid]	0.5 to 5 µM	0.5 to 5 µM	–	–
CCCC1(CC(=O)O)OCCc2c1[nH]c1c(C)c(COc3cccc(F)c3)cc(C#N)c21 (centres unmarked) [Example 21, [5-Cyano-7-(3-fluoro-phenoxymethyl)-8-methyl-1-propyl-1,3,4,9-tetrahydro-pyrano[3,4-b]indol-1-yl]-acetic acid]	< 0.5 µM	< 0.5 µM	–	–
CCCC1(CC(=O)O)OCCc2c1[nH]c1c(C)c(OCC3CC3)cc(C#N)c21 (centres unmarked) [Example 22, (5-Cyano-7-cyclopropylmethoxy-8-methyl-1-propyl-1,3,4,9-tetrahydro-pyrano[3,4-b]indol-1-yl)-acetic acid]	< 0.5 µM	< 0.5 µM	–	–
CCC[C@]1(CC(=O)O)OCCc2c1[nH]c1c(C)c(OCc3cc(C)on3)cc(C#N)c21 [Example 23, (R)-[5-Cyano-8-methyl-7-(5-methyl-isoxazol-3-ylmethoxy)-1-propyl-1,3,4,9-tetrahydro-pyrano[3,4-b]indol-1-yl]-acetic acid]	< 0.5 µM	< 0.5 µM	–	–
CCCC1(CC(=O)O)OCCc2c1[nH]c1c(C)c(OCc3ccncc3)cc(C#N)c21 (centres unmarked) [Example 24, [5-Cyano-8-methyl-1-propyl-7-(pyridin-4-ylmethoxy)-1,3,4,9-tetrahydro-pyrano[3,4-b]indol-1-yl]-acetic acid]	< 0.5 µM	< 0.5 µM	–	–
CCC[C@]1(CC(=O)O)OCCc2c1[nH]c1c(C)c(OCc3cc(C)n(C)n3)cc(C#N)c21 [Example 25, (R)-[5-Cyano-7-(1,5-dimethyl-1H-pyrazol-3-ylmethoxy)-8-methyl-1-propyl-1,3,4,9-tetrahydro-pyrano[3,4-b]indol-1-yl]-acetic acid]	< 0.5 µM	< 0.5 µM	–	–
CCC[C@]1(CC(=O)O)OCCc2c1[nH]c1c(C)c(OCCOC(C)C)cc(C#N)c21 [Example 26, (R)-[5-Cyano-7-(2-isopropoxy-ethoxy)-8-methyl-1-propyl-1,3,4,9-tetrahydro-pyrano[3,4-b]indol-1-yl]-acetic acid]	< 0.5 µM	< 0.5 µM	–	–
CCC[C@]1(CC(=O)O)OCCc2c1[nH]c1c(C)c(OCCCOC)cc(C#N)c21 [Example 27, (R)-[5-Cyano-7-(3-methoxy-propoxy)-8-methyl-1-propyl-1,3,4,9-tetrahydro-pyrano[3,4-b]indol-1-yl]-acetic acid]	< 0.5 µM	< 0.5 µM	–	–
CCC[C@]1(CC(=O)O)OCCc2c1[nH]c1c(C)c(OC[C@@H](C)OC)cc(C#N)c21 [Example 28, (1R,2′R)-[5-Cyano-7-(2-methoxy-propoxy)-8-methyl-1-propyl-1,3,4,9-tetrahydro-pyrano[3,4-b]indol-1-yl]-acetic acid]	< 0.5 µM	< 0.5 µM	–	–
CCC[C@]1(CC(=O)O)OCCc2c1[nH]c1c(C)c(OCc3nnc(C)s3)cc(C#N)c21 [Example 29, (R)-[5-Cyano-8-methyl-7-(5-methyl-[1,3,4]thiadiazol-2-ylmethoxy)-1-propyl-1,3,4,9-tetrahydro-pyrano[3,4-b]indol-1-yl]-acetic acid]	< 0.5 µM	< 0.5 µM	–	–
CCC[C@]1(CC(=O)O)OCCc2c1[nH]c1c(C)c(OCc3nsc(N(C)C)n3)cc(C#N)c21 [Example 30, (R)-[5-Cyano-7-(5-dimethylamino-[1,2,4]thiadiazol-3-ylmethoxy)-8-methyl-1-propyl-1,3,4,9-tetrahydro-pyrano[3,4-b]indol-1-yl]-acetic acid]	< 0.5 µM	< 0.5 µM	–	–
CCCC1(C(=O)O)OCCc2c1[nH]c1c(C)c(OCCOC)cc(C#N)c21 (centres unmarked) [Example 31, 5-Cyano-7-(2-methoxy-ethoxy)-8-methyl-1-propyl-1,3,4,9-tetrahydro-pyrano[3,4,-b]indole-1-carboxylic acid]	0.5 to 5 µM	0.5 to 5 µM	–	–
CCCC1(C(=O)O)OCCc2c1[nH]c1c(C)c(OCc3cc(C)on3)cc(C#N)c21 (centres unmarked) [Example 32, 5-Cyano-8-methyl-7-(5-methyl-isoxazol-3-ylmethoxy)-1-propyl-1,3,4,9-tetrahydro-pyrano[3,4,-b]indole-1-carboxylic acid]	< 0.5 µM	< 0.5 µM	–	–
CCC(C)C1(CC(=O)O)OCCc2c1[nH]c1c(C)c(OCc3cc(C)n(C)n3)cc(C#N)c21 [Example 36, (1R*,10S)-[1-sec-Butyl-5-cyano-7-(1,5-dimethyl-1H-pyrazol-3-ylmethoxy)-8-methyl-1,3,4,9-tetrahydro-pyrano[3,4-b]indol-1-yl]-acetic acid]	< 0.5 µM	< 0.5 µM	–	–
CCCC1(C(=O)O)OCCc2c1[nH]c1c(C)c(OCc3ccncc3)cc(C#N)c21 (centres unmarked) [Example 37]	< 0.5 µM	< 0.5 µM	–	–
CCCC1(CC(=O)O)OCCc2c1[nH]c1c(C)c(OCc3ccncc3)cc(C#N)c21 (centres unmarked) [Example 38]	–	< 0.5 µM	< 0.5 µM	–
CCCC1(CC(=O)O)OCCc2c1[nH]c1c(C)c(O[C@@H]3CCOC3)cc(C#N)c21 (some centres unmarked) [Example 39]	–	< 0.5 µM	–	< 0.5 µM
CCCC1(CC(=O)O)OCCc2c1[nH]c1c(C)c(O[C@H]3CCOC3)cc(C#N)c21 (some centres unmarked) [Example 40]	< 0.5 µM	< 0.5 µM	–	–
CCCC1(CC(=O)O)OCCc2c1[nH]c1c(C)c(OCc3cccnc3)cc(C#N)c21 (centres unmarked) [Example 41]	< 0.5 µM	< 0.5 µM	–	–
CCCC1(CC(=O)O)OCCc2c1[nH]c1c(C)c(O[C@@H]3CCNC3)cc(C#N)c21 (some centres unmarked) [Example 42]	0.5 to 5 µM	< 0.5 µM	–	–
CCCC1(CC(=O)O)OCCc2c1[nH]c1c(C)c(OCCOC)cc(C#N)c21 (centres unmarked) [Example 43]	< 0.5 µM	< 0.5 µM	–	–
CCC[C@]1(CC(=O)O)OCCc2c1[nH]c1c(C)c(OCCOC)cc(C#N)c21 [Example 44]	< 0.5 µM	< 0.5 µM	–	–
CCCC1(CC(=O)O)OCCc2c1[nH]c1c(C)c(O)cc(C#N)c21 (centres unmarked) [Example 45]	< 0.5 µM	< 0.5 µM	–	–
CCC[C@]1(CC(=O)O)OCCc2c1[nH]c1c(C)c(O)cc(C#N)c21 [Example 46]	< 0.5 µM	< 0.5 µM	–	–
CCC[C@@]1(CC(=O)O)OCCc2c1[nH]c1c(C)c(O)cc(C#N)c21 [Example 47]	0.5 to 5 µM	> 5 µM	–	–
CCCC1(CC(=O)O)OCCc2c1[nH]c1c(C)c(OCCC3CC3)cc(C#N)c21 (centres unmarked) [Example 48]	< 0.5 µM	< 0.5 µM	–	–
CCCC1(CC(=O)O)OCCc2c1[nH]c1c(C)c(OCc3ccccn3)cc(C#N)c21 (centres unmarked) [Example 49]	< 0.5 µM	< 0.5 µM	–	–
CCCC1(CC(=O)O)OCCc2c1[nH]c1c(C)c(OCCSC)cc(C#N)c21 (centres unmarked) [Example 50]	< 0.5 µM	< 0.5 µM	–	–

— US20070219212A1, “Pyranouidole Derivatives and the Use Thereof for the Treatment of Hepatitis C Virus Infection or Disease” (priority 2004, published 2007)
